Experimental data as given in PubChem BioAssay (NCI).
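Grown in 96-well plates, cells were treated for 48 hours with each compound at five concentrations. Insufficient inhibition: endpoint recorded as highest concentration tested. Abbreviation: GI50, concentration required for 50% inhibition of growth. At the TGI there is no net growth.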

What was measured:
Assay in all cases: NCI tumour cell line growth inhibition, 48 h; in the data active means GI50 below about 0.43 µM; inactive means the rest
SK-OV-3 ovarian = system: SK-OV-3 ovarian
U251 CNS = system: U251 CNS
SK-MEL-2 melanoma = system: SK-MEL-2 melanoma
ACHN renal = system: ACHN renal
HCT-116 colon = system: HCT-116 colon
UO-31 renal = system: UO-31 renal
OVCAR-3 ovarian = system: OVCAR-3 ovarian
TK-10 renal = system: TK-10 renal
K-562 leukemia = system: K-562 leukemia
SK-MEL-5 melanoma = system: SK-MEL-5 melanoma
T-47D breast = system: T-47D breast
SF-268 CNS = system: SF-268 CNS
CAKI-1 renal = system: CAKI-1 renal
NCI-H23 lung = system: NCI-H23 lung
HOP-92 NSCLC = system: HOP-92 NSCLC
MALME-3M melanoma = system: MALME-3M melanoma
A549 NSCLC = system: A549 NSCLC
HOP-62 NSCLC = system: HOP-62 NSCLC
SNB-19 CNS = system: SNB-19 CNS
SK-MEL-28 melanoma = system: SK-MEL-28 melanoma
PC-3 prostate = system: PC-3 prostate
NCI-H522 lung = system: NCI-H522 lung
LOX IMVI melanoma = system: LOX IMVI melanoma
OVCAR-8 ovarian = system: OVCAR-8 ovarian
A498 renal = system: A498 renal
EKVX NSCLC = system: EKVX NSCLC
SW-620 colon = system: SW-620 colon
MCF7 breast = system: MCF7 breast
SN12C renal = system: SN12C renal
MOLT-4 leukemia = system: MOLT-4 leukemia
BT-549 breast = system: BT-549 breast
IGROV1 ovarian = system: IGROV1 ovarian
RXF 393 renal = system: RXF 393 renal
NCI/ADR-RES ovarian = system: NCI/ADR-RES ovarian
HS 578T breast = system: HS 578T breast
CCRF-CEM leukemia = system: CCRF-CEM leukemia
HL-60(TB) leukemia = system: HL-60(TB) leukemia
UACC-257 melanoma = system: UACC-257 melanoma
NCI-H226 lung = system: NCI-H226 lung
DU-145 prostate = system: DU-145 prostate
HT29 colon = system: HT29 colon
HCC-2998 colon = system: HCC-2998 colon
MDA-MB-435 = system: MDA-MB-435
SF-295 CNS = system: SF-295 CNS
OVCAR-4 ovarian = system: OVCAR-4 ovarian
OVCAR-5 ovarian = system: OVCAR-5 ovarian
786-0 renal = system: 786-0 renal
HCT-15 colon = system: HCT-15 colon
KM12 colon = system: KM12 colon
COLO 205 colon = system: COLO 205 colon
RPMI-8226 leukemia = system: RPMI-8226 leukemia
NCI-H460 lung = system: NCI-H460 lung
SR leukemia = system: SR leukemia
SNB-75 CNS = system: SNB-75 CNS
MDA-MB-231 breast = system: MDA-MB-231 breast
M14 melanoma = system: M14 melanoma
SF-539 CNS = system: SF-539 CNS

Cc1cc(-c2nnc(N)nc2-c2ccc(F)cc2)cc(Cl)n1
> 100 µM: TGI (SK-OV-3 ovarian) | TGI (U251 CNS) | TGI (SK-MEL-2 melanoma) | TGI (ACHN renal) | TGI (HCT-116 colon) | TGI (UO-31 renal) | TGI (OVCAR-3 ovarian) | TGI (TK-10 renal) | TGI (K-562 leukemia) | TGI (SK-MEL-5 melanoma) | TGI (T-47D breast) | TGI (SF-268 CNS) | TGI (CAKI-1 renal) | TGI (NCI-H23 lung) | TGI (HOP-92 NSCLC) | TGI (MALME-3M melanoma) | TGI (A549 NSCLC) | TGI (HOP-62 NSCLC) | TGI (SNB-19 CNS) | TGI (SK-MEL-28 melanoma) | TGI (PC-3 prostate) | TGI (NCI-H522 lung) | TGI (LOX IMVI melanoma) | TGI (OVCAR-8 ovarian) | TGI (A498 renal) | TGI (EKVX NSCLC) | TGI (SW-620 colon) | TGI (MCF7 breast) | TGI (SN12C renal) | TGI (MOLT-4 leukemia) | TGI (BT-549 breast) | TGI (IGROV1 ovarian) | TGI (RXF 393 renal) | TGI (NCI/ADR-RES ovarian) | TGI (HS 578T breast) | TGI (CCRF-CEM leukemia) | TGI (HL-60(TB) leukemia) | TGI (UACC-257 melanoma) | TGI (NCI-H226 lung) | TGI (DU-145 prostate) | TGI (HT29 colon) | TGI (HCC-2998 colon) | TGI (MDA-MB-435) | TGI (SF-295 CNS) | TGI (OVCAR-4 ovarian) | TGI (OVCAR-5 ovarian) | TGI (786-0 renal) | TGI (HCT-15 colon) | TGI (KM12 colon) | TGI (COLO 205 colon) | TGI (RPMI-8226 leukemia) | TGI (NCI-H460 lung) | TGI (SR leukemia) | TGI (SNB-75 CNS) | TGI (MDA-MB-231 breast) | TGI (M14 melanoma) | TGI (SF-539 CNS)
inactive: GI50 (SK-OV-3 ovarian) > 100 µM | GI50 (U251 CNS) > 100 µM | GI50 (SK-MEL-2 melanoma) > 100 µM | GI50 (ACHN renal) 73.3 µM | GI50 (HCT-116 colon) 75.4 µM | GI50 (UO-31 renal) 24.3 µM | GI50 (OVCAR-3 ovarian) > 100 µM | GI50 (TK-10 renal) 42.6 µM | GI50 (K-562 leukemia) 59 µM | GI50 (SK-MEL-5 melanoma) 25.5 µM | GI50 (T-47D breast) 28.3 µM | GI50 (SF-268 CNS) > 100 µM | GI50 (CAKI-1 renal) 43.8 µM | GI50 (NCI-H23 lung) 54.3 µM | GI50 (HOP-92 NSCLC) 11.5 µM | GI50 (MALME-3M melanoma) > 100 µM | GI50 (A549 NSCLC) > 100 µM | GI50 (HOP-62 NSCLC) > 100 µM | GI50 (SNB-19 CNS) > 100 µM | GI50 (SK-MEL-28 melanoma) > 100 µM | GI50 (PC-3 prostate) 76.9 µM | GI50 (NCI-H522 lung) 55.9 µM | GI50 (LOX IMVI melanoma) > 100 µM | GI50 (OVCAR-8 ovarian) > 100 µM | GI50 (A498 renal) 49 µM | GI50 (EKVX NSCLC) 59.9 µM | GI50 (SW-620 colon) > 100 µM | GI50 (MCF7 breast) > 100 µM | GI50 (SN12C renal) > 100 µM | GI50 (MOLT-4 leukemia) 49.9 µM | GI50 (BT-549 breast) 58.1 µM | GI50 (IGROV1 ovarian) > 100 µM | GI50 (RXF 393 renal) 87.2 µM | GI50 (NCI/ADR-RES ovarian) 57.4 µM | GI50 (HS 578T breast) > 100 µM | GI50 (CCRF-CEM leukemia) 93.1 µM | GI50 (HL-60(TB) leukemia) 33.6 µM | GI50 (UACC-257 melanoma) 78.9 µM | GI50 (NCI-H226 lung) 46.9 µM | GI50 (DU-145 prostate) > 100 µM | GI50 (HT29 colon) > 100 µM | GI50 (HCC-2998 colon) > 100 µM | GI50 (MDA-MB-435) > 100 µM | GI50 (SF-295 CNS) 72.7 µM | GI50 (OVCAR-4 ovarian) 97.3 µM | GI50 (OVCAR-5 ovarian) > 100 µM | GI50 (786-0 renal) > 100 µM | GI50 (HCT-15 colon) > 100 µM | GI50 (KM12 colon) > 100 µM | GI50 (COLO 205 colon) > 100 µM | GI50 (RPMI-8226 leukemia) 37.3 µM | GI50 (NCI-H460 lung) > 100 µM | GI50 (SR leukemia) 64 µM | GI50 (SNB-75 CNS) 54.3 µM | GI50 (MDA-MB-231 breast) 70.2 µM | GI50 (M14 melanoma) > 100 µM | GI50 (SF-539 CNS) > 100 µM
